Earlier results, collected in patent publication US10954430B2, “Low-toxicity, low-flammability, environmentally-safe, friction reducer fluid for hydraulic fracturing” (priority 2012, dated 2021).
Values after ≈ are worked out from the molar mass of the structure shown. Like-named read-outs stand apart in the source and are kept apart here.

Tests used:
[1] = tested on: rat
[2] = tested on: daphnia magna (water flea)
[3] = tested on: Pimephales promelas (fathead minnow)
[4] = tested on: most sensitive species; conditions: eco-toxicity
[5] = tested on: animal; conditions: in vivo

## CC(O)COc1ccccc1 (stereo not drawn) [Dowanol PPH, propylene glycol phenyl ether]
[1]; in vivo
  LD50: > 2,000 mg/kg
[2]; Daphnia magna
  LC50: 370 µg/mL (≈ 2430 µM)
[3]; Pimephales promelas
  LC50: 280 µg/mL (≈ 1840 µM)
[4]
  LC50 for most sensitive species: > 100 µg/mL
[5]
  animal toxicity: does not have significant animal toxicity

## CC1COC(=O)O1 (stereo not drawn) [Propylene carbonate, propylene carbonate]
[1]; oral
  LD50 for oral toxicity: > 5000 mg/kg

## OCCCO [propanediol]
[1]; oral
  LD50: over 15,000 mg/kg
[2]; daphnia magna (water flea)
  aquatic toxicity profile: > 7.417 mg/L
[3]; Pimephales promelas (fathead minnow)
  aquatic toxicity profile: > 9,270 mg/L
